Results on four substances are retold here after US10577610B2, “EpCAM aptamers and conjugates thereof” (Deakin University, priority 2015, dated 2020).

In one data set the target is T1, mouse TfR (Mus musculus, UniProt Q62351).
T1 construct: bEnd.3 cells, mouse cells positive for TfR; host or cells: bEnd.3 mouse cerebral endothelial cells
Put plainly: Flow cytometry binding assay on bEnd.3 cells (TfR-positive). To be noted: bEnd.3 (TfR-positive) cells, n=3. How it is done: In order to determine the binding affinity (equilibrium dissociation constant KD) of the aptamers. Binding assays were conducted to measure the binding to native EpCAM protein expressed on the cell surface. The aptamers were incubated with the cells at concentrations ranging from 0 nM to 400 nM. These were subsequently analysed by flow cytometry. Aptamers were thawed from storage (-20° C.) prior to use. These were then diluted via serial dilutions with phosphate buffered saline (PBS) in order to achieve the desired concentrations. PBS was supplemented with a MgCl2 concentration appropriate for the aptamer (1 mM for anti-TfR aptamers; 5 mM for conjugate aptamers). […] Concurrently, subcultured cells were incubated in blocking buffer (PBS with 10% FCS, 1 mg/mL BSA, 0.1 mg/mL tRNA) for 30 minutes. Following centrifugation, blocking buffer was removed and cells were resuspended in binding buffer (PBS with 10% FCS, 1 mg/mL BSA, 0.1 mg/mL tRNA). Cells (50 μL) were then incubated with the aptamers (50 μL) for 30 minutes at 37° C. at a range of concentrations (0 nM, 20 nM, 40 nM, 60 nM, 80 nM, 100 nM, 200 nM, 400 nM). Following this, cells were washed in 100 μL PBS three times before final resuspension for flow cytometry. Aptamers were incubated with the chosen cell lines (bEnd.3 cells, mouse cells positive for TfR; HEY cells, human ovarian cancer cell line positive for EpCAM; and MOLT4 human cells negative for both TfR and EpCAM) at a range of concentrations. Aptamer-bound cells were analysed using a FACS Canto II flow cytometer (Becton Dickinson), counting 10,000 events for each sample, in order to determine the binding affinity of the aptamers. […] The value for the auto fluorescent 0 nM concentration was subtracted from the other figures to account for background fluorescence (Li N et al (2009) Journal of Proteome Research 8(5):2438-48). […] The binding affinities of aptamers TfR1, TfR2, […] determined semi-quantitatively via flow cytometry, using bEnd.3 mouse cerebral endothelial cells as a Tf R-positive cell line and MOLT4 acute lymphoblastic leukaemia cells-which express the human TfR, but not the mouse TfR (Sutherland R et al (1981) PNAS 78(7):4515-9)-as a negative control. Three independent binding assays were performed for each aptamer against each cell line. […] Three independent binding assays were performed for these aptamer against all three cell lines (bEnd.3, HEY and MOLT4).
A general note: Flow cytometry measures light scatter and fluorescence of single cells or particles in a stream.

The target of data set [1] is T2, native EpCAM protein expressed on the cell surface (HEY cells) (Homo sapiens, UniProt P16422).
T2 construct: host or cells: HEY ovarian cancer cells
T2 sequence (P16422 24-314): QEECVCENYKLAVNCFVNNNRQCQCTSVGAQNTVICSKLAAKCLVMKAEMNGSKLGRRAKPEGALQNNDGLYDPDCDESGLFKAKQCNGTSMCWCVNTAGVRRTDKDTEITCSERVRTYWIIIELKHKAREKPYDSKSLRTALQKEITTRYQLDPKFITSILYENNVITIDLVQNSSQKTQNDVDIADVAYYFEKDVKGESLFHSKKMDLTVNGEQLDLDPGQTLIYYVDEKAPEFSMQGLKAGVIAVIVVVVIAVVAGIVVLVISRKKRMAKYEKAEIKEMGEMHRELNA
Put plainly: Flow cytometry binding assay on HEY cells (EpCAM-positive). To be noted: for Kd: HEY (EpCAM-positive) cells, flow cytometry, n=3. How it is done:
In order to determine the binding affinity (equilibrium dissociation constant KD) of the aptamers. Binding assays were conducted to measure the binding to native EpCAM protein expressed on the cell surface. The aptamers were incubated with the cells at concentrations ranging from 0 nM to 400 nM. These were subsequently analysed by flow cytometry. Aptamers were thawed from storage (−20° C.) prior to use. These were then diluted via serial dilutions with phosphate buffered saline (PBS) in order to achieve the desired concentrations. PBS was supplemented with a MgCl2 concentration appropriate for the aptamer (1 mM for anti-TfR aptamers; 5 mM for conjugate aptamers). Aptamers were then folded into their 3D structures using a thermocycler (85° C. for 5 minutes, slow cooling to 22° C. over 10 minutes and 37° C. for 15 minutes).
Concurrently, subcultured cells were incubated in blocking buffer (PBS with 10% FCS, 1 mg/mL BSA, 0.1 mg/mL tRNA) for 30 minutes. Following centrifugation, blocking buffer was removed and cells were resuspended in binding buffer (PBS with 10% FCS, 1 mg/mL BSA, 0.1 mg/mL tRNA). Cells (50 μL) were then incubated with the aptamers (50 μL) for 30 minutes at 37° C. at a range of concentrations (0 nM, 20 nM, 40 nM, 60 nM, 80 nM, 100 nM, 200 nM, 400 nM). Following this, cells were washed in 100 μL PBS three times before final resuspension for flow cytometry.
Aptamers were incubated with the chosen cell lines (bEnd.3 cells, mouse cells positive for TfR; HEY cells, human ovarian cancer cell line positive for EpCAM; and MOLT4 human cells negative for both TfR and EpCAM) at a range of concentrations. Aptamer-bound cells were analysed using a FACS Canto II flow cytometer (Becton Dickinson), counting 10,000 events for each sample, in order to determine the binding affinity of the aptamers. […] The value for the auto fluorescent 0 nM concentration was subtracted from the other figures to account for background fluorescence (Li N et al (2009) Journal of Proteome Research 8(5):2438-48). The resultant values were then used to determine the dissociation constant (KD) via the Graph Pad Prism 3 software. […]
The binding affinities of aptamers Bi1, Bi2 and Bi3 were determined semi-quantitatively via flow cytometry, using bEnd.3 cells to assess reactivity with TfR, HEY cells to determine EpCAM specificity and the MOLT4 cell line as a negative control. Three independent binding assays were performed for these aptamer against all three cell lines (bEnd.3, HEY and MOLT4). […]

Where “and” joins values, the source holds several entries; their conditions need not be identical. Identical values can stand only once. [invdT] = inverted (3'-3') thymidine; {TYE665} = TYE665 fluorescent dye

As a reminder, the Kd is the concentration at which binding is half-saturated. High values mean lower affinity, low ones higher affinity.

T1 sequence (Q62351 whole entry): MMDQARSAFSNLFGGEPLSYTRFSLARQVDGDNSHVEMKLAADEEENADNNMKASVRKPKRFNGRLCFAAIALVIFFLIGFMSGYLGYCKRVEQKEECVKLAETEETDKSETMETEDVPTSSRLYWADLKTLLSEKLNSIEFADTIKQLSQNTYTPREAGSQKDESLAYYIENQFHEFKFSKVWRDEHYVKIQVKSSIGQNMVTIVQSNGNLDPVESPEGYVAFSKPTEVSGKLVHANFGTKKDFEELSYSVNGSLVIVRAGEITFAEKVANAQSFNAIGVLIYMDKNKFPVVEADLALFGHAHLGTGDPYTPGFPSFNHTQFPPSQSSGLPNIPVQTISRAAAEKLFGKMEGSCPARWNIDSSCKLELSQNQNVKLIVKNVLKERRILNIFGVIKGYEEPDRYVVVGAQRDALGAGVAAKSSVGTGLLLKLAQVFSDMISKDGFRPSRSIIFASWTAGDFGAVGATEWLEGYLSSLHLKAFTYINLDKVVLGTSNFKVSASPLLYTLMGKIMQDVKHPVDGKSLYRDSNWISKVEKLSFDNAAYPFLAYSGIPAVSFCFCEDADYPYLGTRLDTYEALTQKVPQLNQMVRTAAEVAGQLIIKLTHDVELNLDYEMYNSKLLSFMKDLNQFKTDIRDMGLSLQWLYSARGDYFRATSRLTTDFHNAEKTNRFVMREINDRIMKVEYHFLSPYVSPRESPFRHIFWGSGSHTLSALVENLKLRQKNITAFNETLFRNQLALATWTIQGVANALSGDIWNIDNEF

“Bi1: aptamer conjugate based on TfR1 and scrambled EpCAM binding loop, negative control, SEQ ID NO:8 (GCGCGTGCACGCGCTAACGGATTCCTTTTCCGN; listed as DNA, further chemistry not given here)”: the Kd with mouse TfR came to 1690 ± 1840 nM; in data set [1], 921 ± 270 nM.

Consider “TfR3: version of TfR1 with scrambled binding loop sequence, SEQ ID NO:6 (DNA GCGTGGTACCACGC; DNA, 5' {TYE665}, 3' [invdT], backbone not given here)”, for which the affinity in the data set with mouse TfR, expressed as Kd, was 366 nM. Moreover, the “Binding to HEY cell line (specific or non-specific)” value in data set [1] (flow cytometry binding curve) is reported as “clear non-specific binding”.

Turning to “5′-GCGCGGTACCGCGCTAACGGAGGTTGCGTCCGT-3′ (GCGCGGTACCGCGCTAACGGAGGTTGCGTCCGN; listed as DNA, chemistry not given here) [Bi3]”, the dissociation constant (Kd) was 342 ± 78.3 nM in the data set with mouse TfR and 219 ± 49.2 nM in data set [1].

On to “5′-GCGCGGGCCCGCGCTAACGGAGGTTGCGTCCGT-3′ (GCGCGGGCCCGCGCTAACGGAGGTTGCGTCCGN; DNA sequence of aptamer conjugate Bi2; (33)..(33) n is t or 3′ inverted deoxythymidine (dT))”, for which the dissociation constant (Kd) was 306 nM and 305 nM with mouse TfR; 205 ± 73.3 nM in data set [1].
